Experimental data: patent publication US20180237713A1, “Ionic Liquid, Lubricant, and Magnetic Recording Medium” (priority 2015, published 2018)

Tests used:
[1] = in acetonitrile; cited from earlier work
[2] = Thermal stability measurement (TG/DTA weight reduction temperature); details: for Weight reduction temperature 5% / Weight reduction temperature 10% / Weight reduction temperature 20%: TG/DTA, air 200 mL/min, 10° C./min, 30° C. to 600° C.
[3] = Solubility test of ionic liquid in fluorine-based solvent VERTREL XF; details: for Solubility to fluorine-based solvent: VERTREL XF [CF3(CHF)2CF2CF3], 25° C., ultrasonic 5 minutes, left 1 day, visual; for Dissolved or not in fluorine-based solvent: VERTREL XF
Method: A solubility test was performed on the ionic liquid synthesized each of Examples and each of Comparative Examples using VERTREL XF [CF3(CHF)2CF2CF3] available from Du Pont-Mitsui Fluorochemicals Company, Ltd. as a fluorine-based solvent.
The ionic liquid was added to the predetermined mass of VERTREL XF.
Specifically, 0.5 parts by mass or 0.1 parts by mass of each ionic liquid was added to 100 parts by mass of VERTREL XF (25° C.).
Note that, a case where the mixture was visually observed to be transparent, the ionic liquid was judged as being dissolved. A case where the mixture was not transparent or insoluble matter was observed, the ionic liquid was judged as not being dissolved (insoluble).
The ionic liquid was dissolved when 0.5 parts by mass of the ionic liquid was added.
The ionic liquid was not dissolved when 0.5 parts by mass of the ionic liquid was added, but the ionic liquid was dissolved when 0.1 parts by mass of the ionic liquid was added.
The ionic liquid was not dissolved both when 0.5 parts by mass of the ionic liquid was added and when 0.1 parts by mass of the ionic liquid was added.

Molecule: O=S(=O)(C(S(=O)(=O)C(F)(F)F)S(=O)(=O)C(F)(F)F)C(F)(F)F [tris(trifluoromethanesulfonyl)methide]
- pKa of acid that is a source of the conjugate base [1]: −3.7

Molecule: CCCCCCCCCCCCCCCCCCC1CCCCN2CCCN=C12.O=S1(=O)NS(=O)(=O)C(F)(F)C(F)(F)C1(F)F (centres unmarked) [Comp. Ex. 1A, hexafluorocyclopropane-1,3-bis(sulfonyl)imide-6-octadecyl-1,8-diazabicyclo[5.4.0]-7-undecenium, reference compound]
- Weight reduction temperature 5% [2]: 346.3 °C
- Weight reduction temperature 10% [2]: 384.1 °C
- Weight reduction temperature 20% [2]: 414.0 °C
- Solubility to fluorine-based solvent [3]: less than 0.1% by mass

Molecule: bis(nonafluorobutanesulfonyl)imide-6-octadecyl-1,8-diazabicyclo[5.4.0]-7-undecene [Ex. 1A]
- Weight reduction temperature 5% [2]: 352.9 °C
- Weight reduction temperature 10% [2]: 378.2 °C
- Weight reduction temperature 20% [2]: 396.7 °C
- Solubility to fluorine-based solvent [3]: 0.5% by mass or greater
- Solubility to fluorine-based solvent ([3]; listed as Example 1A): ≥ 0.5 % by mass

Molecule: CCCCCCCCCCCCCCCCCCn1cc[n+](CCCCCCCCC[n+]2ccn(CCCCCCCCCCCCCCCCCC)c2)c1.O=S(=O)([N-]S(=O)(=O)C(F)(F)C(F)(F)C(F)(F)C(F)(F)F)C(F)(F)C(F)(F)C(F)(F)C(F)(F)F.O=S(=O)([N-]S(=O)(=O)C(F)(F)C(F)(F)C(F)(F)C(F)(F)F)C(F)(F)C(F)(F)C(F)(F)C(F)(F)F [Comp. Ex. 10A, 1,9-bis[bis(nonafluorobutanesulfonyl)imide-1-octadecylimidazolium]nonane, reference compound]
- Weight reduction temperature 5% [2]: 355.1 °C
- Weight reduction temperature 10% [2]: 381.0 °C
- Weight reduction temperature 20% [2]: 400.9 °C
- Solubility to fluorine-based solvent [3]: less than 0.1% by mass

Molecule: O=S(=O)(O)C(F)(F)C(F)(F)C(F)(F)C(F)(F)C(F)(F)C(F)(F)C(F)(F)C(F)(F)F [heptadecafluorooctane sulfonic acid]
- pKa of acid that is a source of the conjugate base [1]: 0.7

Molecule: F[B-](F)(F)F.[H+] [tetrafluoroboric acid]
- pKa of acid that is a source of the conjugate base [1]: 1.8

Molecule: CCCCCCCCCCCCCCCCCC[N+]1=C2CCCCCN2CCC1.O=S(=O)([N-]S(=O)(=O)C(F)(F)C(F)(F)C(F)(F)C(F)(F)F)C(F)(F)C(F)(F)C(F)(F)C(F)(F)F [Ex. 2A, bis(nonafluorobutanesulfonyl)imide-8-octadecyl-1,8-diazabicyclo[5.4.0]-7-undecenium]
- Weight reduction temperature 5% [2]: 341.1 °C
- Weight reduction temperature 10% [2]: 372.9 °C
- Weight reduction temperature 20% [2]: 396.3 °C
- Thermal stability improved compared with perfluoropolyether Z-DOL or Z-TETRAOL by ([2]; difference to Z-DOL or Z-TETRAOL): ≥ 100 °C
- Solubility to fluorine-based solvent [3]: 0.5% by mass or greater
- Solubility to fluorine-based solvent ([3]; listed as Example 2A): ≥ 0.5 % by mass

Molecule: O=S(=O)(NS(=O)(=O)C(F)(F)C(F)(F)C(F)(F)C(F)(F)F)C(F)(F)C(F)(F)C(F)(F)C(F)(F)F [bis(nonafluorobutanesulfonyl)imide]
- pKa of acid that is a source of the conjugate base [1]: 0.0

Molecule: O=S1(=O)NS(=O)(=O)C(F)(F)C(F)(F)C1(F)F [hexafluorocyclopropane-1,3-bis(sulfonyl)imide]
- pKa of acid that is a source of the conjugate base [1]: −0.8

Molecule: CCCCCCCCCCCCCCCCCCN1CCCC1.O=S1(=O)NS(=O)(=O)C(F)(F)C(F)(F)C1(F)F [Comp. Ex. 6A, hexafluorocyclopropane-1,3-bis(sulfonyl)imide-N-octadecylpyrrolidinium, reference compound]
- Weight reduction temperature 5% [2]: 336.4 °C
- Weight reduction temperature 10% [2]: 358.4 °C
- Weight reduction temperature 20% [2]: 379.4 °C
- Solubility to fluorine-based solvent [3]: less than 0.1% by mass

Molecule: CCCCCCCCCCCCCCCCCC[n+]1ccn(CCCC)c1.O=S(=O)([N-]S(=O)(=O)C(F)(F)C(F)(F)C(F)(F)C(F)(F)F)C(F)(F)C(F)(F)C(F)(F)C(F)(F)F [Comp. Ex. 8A, bis(nonafluorobutanesulfonyl)imide-1-butyl-3-n-octadecylimidazolium, reference compound]
- Weight reduction temperature 5% [2]: 347.2 °C
- Weight reduction temperature 10% [2]: 367.0 °C
- Weight reduction temperature 20% [2]: 387.8 °C
- Solubility to fluorine-based solvent [3]: less than 0.1% by mass

Molecule: CCCCCCCCCCCCCCCCCCN1CCCC1.O=S(=O)(NS(=O)(=O)C(F)(F)C(F)(F)C(F)(F)C(F)(F)F)C(F)(F)C(F)(F)C(F)(F)C(F)(F)F [Ex. 5A, bis(nonafluorobutanesulfonyl)imide-N-octadecylpyrrolidinium]
- Weight reduction temperature 5% [2]: 312.6 °C
- Weight reduction temperature 10% [2]: 334.4 °C
- Weight reduction temperature 20% [2]: 355.5 °C
- Dissolved or not in fluorine-based solvent [3]: could be dissolved
- Solubility to fluorine-based solvent [3]: 0.5% by mass or greater
- Solubility to fluorine-based solvent ([3]; listed as Example 5A): ≥ 0.5 % by mass

Molecule: CCCCCCCCCCCCCCCCCC[N+]1(CCCC)CCCC1.O=S(=O)([N-]S(=O)(=O)C(F)(F)C(F)(F)C(F)(F)C(F)(F)F)C(F)(F)C(F)(F)C(F)(F)C(F)(F)F [Ex. 4A, bis(nonafluorobutanesulfonyl)imide-N-butyl-N-octadecylpyrrolidinium]
- Weight reduction temperature 5% [2]: 331.4 °C
- Weight reduction temperature 10% [2]: 360.2 °C
- Weight reduction temperature 20% [2]: 382.5 °C
- Dissolved or not in fluorine-based solvent [3]: could be dissolved
- Solubility to fluorine-based solvent [3]: 0.5% by mass or greater
- Solubility to fluorine-based solvent ([3]; listed as Example 4A): ≥ 0.5 % by mass
